Experimental data reported in ChEMBL document CHEMBL1932917, “4,5-dihydropyridazin-3-one derivatives as histamine H₃ receptor inverse agonists” (Bioorg Med Chem Lett, 2012).
Values belong to the molecule of their own block, whether it stands above or below them.

Experiments:
Histamine H3 receptor [1] = target: T1, Histamine H3 receptor (Homo sapiens, UniProt Q9Y5N1); experiment: Displacement of [3H]NAMH from human histamine H3 receptor expressed in CHO cells; type: cell-based
Histamine H3 receptor [2] = target: Histamine H3 receptor (Rattus norvegicus, UniProt Q9QYN8); experiment: Displacement of [3H]NAMH from rat histamine H3 receptor expressed in CHO cells; type: cell-based
[3] = target: Histamine H1 receptor (Homo sapiens) (UniProt P35367); experiment: Inhibition human histamine H1 receptor at 10 uM
[4] = Half life in mouse liver microsomes; type: ADME, Microsome
[5] = Half life in rat liver microsomes; type: ADME, Microsome
Rattus norvegicus [6] = experiment: Effect on sleep-awake cycle in EEG/EMG rat model assessed as wake promotion at 1 mg/kg, ip after 4 hrs (reference value: 80 +/- 5 mins); type: functional; settings: route intraperitoneal
[7] = Clearance in rat at 1 mg/kg, iv; type: ADME, organism-based; parameters: dose 1 mg/kg, route intravenous; settings: in vivo
Histamine H3 receptor [8] = target: T1, Histamine H3 receptor; experiment: Inverse agonist activity at human histamine H3 receptor by [35S]GTPgammaS binding assay; type: functional
Cytochrome P450 3A4 = Cytochrome P450 3A4 (Homo sapiens, UniProt P08684); experiment: Inhibition of CYP3A4; type: ADME
Rattus norvegicus [9] = experiment: Effect on sleep-awake cycle in EEG/EMG rat model assessed as wake promotion at 10 mg/kg, ip after 5 hrs relative to control; type: functional; settings: route intraperitoneal
Rattus norvegicus [10] = experiment: Effect on sleep-awake cycle in ip dosed EEG/EMG rat model assessed as wake promotion after 4 hrs relative to control; type: functional, organism-based
[11] = Half life in monkey liver microsomes; type: ADME, Macaca mulatta, Microsome; settings: rhesus monkey
[12] = (§1) Oral bioavailability in rat at 5 mg/kg; type: ADME, organism-based; settings: in vivo
Rattus norvegicus [13] = experiment: Effect on sleep-awake cycle in EEG/EMG rat model assessed as wake promotion at 3 mg/kg, ip after 4 hrs (reference value: 80 +/- 5 mins); type: functional; settings: route intraperitoneal
[14] = Plasma protein binding in rat; type: ADME, cell-free; settings: read-out: PPB (converted)
[15] = Drug uptake in rat brain at 5 mg/kg, po after 6 hrs; type: ADME, organism-based; parameters: dose 5 mg/kg, route oral; settings: read-out: Drug uptake
Histamine H3 receptor [16] = target: T1, Histamine H3 receptor; experiment: Antagonist activity at human histamine H3 receptor by [35S]GTPgammaS binding assay; type: functional
[17] = Ratio of drug level in brain to plasma in rat at 10 mg/kg, ip after 6 hrs; type: ADME, organism-based; parameters: dose 10 mg/kg, route intraperitoneal; settings: for Kp at 6 h: brain/plasma, read-out: BPR
[18] = (§2) Volume of distribution in rat at 1 mg/kg, iv; type: ADME, organism-based; parameters: dose 1 mg/kg, route intravenous; settings: in vivo
[19] = Half life in dog liver microsomes; type: ADME, Canis lupus familiaris, Microsome
[20] = target: Histamine H2 receptor (Homo sapiens) (UniProt P25021); experiment: Inhibition human histamine H2 receptor at 10 uM
[21] = Solubility of the compound in water at pH 2; type: physicochemical
Rattus norvegicus [22] = experiment: Effect on sleep-awake cycle in EEG/EMG rat model assessed as wake promotion at 10 mg/kg, ip after 17 hrs relative to control; type: functional; settings: route intraperitoneal
[23] = (§3) Half life in rat at 1 mg/kg, iv; type: ADME, organism-based; parameters: dose 1 mg/kg, route intravenous; settings: in vivo
Rattus norvegicus [24] = experiment: Inhibition of RAMH-induced dipsogenia in po dosed rat; type: functional
[25] = Plasma protein binding in human; type: ADME, cell-free; settings: read-out: PPB (converted)
[26] = (§4) Cmax in rat at 5 mg/kg, po; type: ADME, organism-based; parameters: dose 5 mg/kg, route oral; settings: in vivo
[27] = target: Histamine H4 receptor (Homo sapiens) (UniProt Q9H3N8); experiment: Inhibition human histamine H4 receptor at 10 uM
Cytochrome P450 1A2 = target: T2, Cytochrome P450 1A2 (Homo sapiens, UniProt P05177); experiment: Inhibition of CYP1A2; type: ADME
T2 sequence (P05177 whole entry): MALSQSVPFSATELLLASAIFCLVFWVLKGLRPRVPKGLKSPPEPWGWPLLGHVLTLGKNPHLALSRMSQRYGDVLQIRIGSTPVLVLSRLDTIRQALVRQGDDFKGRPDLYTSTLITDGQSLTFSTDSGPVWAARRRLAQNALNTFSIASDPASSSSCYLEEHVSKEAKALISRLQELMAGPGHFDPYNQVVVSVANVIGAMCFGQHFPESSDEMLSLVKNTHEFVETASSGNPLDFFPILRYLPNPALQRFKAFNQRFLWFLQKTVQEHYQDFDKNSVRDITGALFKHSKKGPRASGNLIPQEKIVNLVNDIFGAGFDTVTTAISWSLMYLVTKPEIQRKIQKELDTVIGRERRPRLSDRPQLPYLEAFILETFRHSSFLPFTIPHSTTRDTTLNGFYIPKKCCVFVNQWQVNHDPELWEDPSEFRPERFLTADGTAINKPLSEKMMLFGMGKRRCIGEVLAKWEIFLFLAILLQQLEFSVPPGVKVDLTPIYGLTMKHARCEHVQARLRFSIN

Cytochrome P450 2D6 = Cytochrome P450 2D6 (Homo sapiens, UniProt P10635); experiment: Inhibition of CYP2D6; type: ADME
Rattus norvegicus [28] = experiment: Effect on sleep-awake cycle in EEG/EMG rat model assessed as wake promotion time at 10 mg/kg, ip after 3 hrs relative to control; type: functional; settings: route intraperitoneal
Rattus norvegicus [29] = experiment: Effect on sleep-awake cycle in EEG/EMG rat model assessed as wake promotion at 10 mg/kg, ip after 4 hrs (reference value: 80 +/- 5 mins); type: functional; settings: route intraperitoneal
[30] = Half life in human liver microsomes; type: ADME, Microsome
Rattus norvegicus [31] = experiment: Effect on sleep-awake cycle in EEG/EMG rat model assessed as wake promotion time at 10 mg/kg, ip after 4 hrs relative to control; type: functional; settings: route intraperitoneal
[32] = Solubility of the compound in water at pH 7.4; type: physicochemical
[33] = (§5) AUC in rat at 5 mg/kg, po; type: ADME, organism-based, Plasma; parameters: dose 5 mg/kg, route oral; settings: plasma
[34] = Apparent permeability of the compound in human Caco2 cells; type: ADME, cell-based; settings: Caco-2
[35] = Plasma protein binding in dog; type: ADME, cell-free, Canis lupus familiaris; settings: read-out: PPB (converted)
Cytochrome P450 2C19 = Cytochrome P450 2C19 (Homo sapiens, UniProt P33261); experiment: Inhibition of CYP2C19; type: ADME
Cytochrome P450 2C9 = Cytochrome P450 2C9 (Homo sapiens, UniProt P11712); experiment: Inhibition of CYP2C9; type: ADME
Rattus norvegicus [36] = experiment: as §1; type: ADME, organism-based; settings: in vivo
Rattus norvegicus [37] = experiment: as §2; type: ADME, organism-based; parameters: dose 1 mg/kg, route intravenous; settings: in vivo
Rattus norvegicus [38] = experiment: as §3; type: ADME, organism-based; parameters: dose 1 mg/kg, route intravenous; settings: in vivo
Rattus norvegicus [39] = experiment: as §4; type: ADME, organism-based; parameters: dose 5 mg/kg, route oral; settings: in vivo
Rattus norvegicus [40] = experiment: as §5; type: ADME, organism-based, Plasma; parameters: dose 5 mg/kg, route oral; settings: in vivo
[41] = target: T3, Muscarinic acetylcholine receptor M2 (Homo sapiens) (UniProt P08172); experiment: Inhibition of muscarinic M2 receptor at 10 uM
T3 sequence (whole entry): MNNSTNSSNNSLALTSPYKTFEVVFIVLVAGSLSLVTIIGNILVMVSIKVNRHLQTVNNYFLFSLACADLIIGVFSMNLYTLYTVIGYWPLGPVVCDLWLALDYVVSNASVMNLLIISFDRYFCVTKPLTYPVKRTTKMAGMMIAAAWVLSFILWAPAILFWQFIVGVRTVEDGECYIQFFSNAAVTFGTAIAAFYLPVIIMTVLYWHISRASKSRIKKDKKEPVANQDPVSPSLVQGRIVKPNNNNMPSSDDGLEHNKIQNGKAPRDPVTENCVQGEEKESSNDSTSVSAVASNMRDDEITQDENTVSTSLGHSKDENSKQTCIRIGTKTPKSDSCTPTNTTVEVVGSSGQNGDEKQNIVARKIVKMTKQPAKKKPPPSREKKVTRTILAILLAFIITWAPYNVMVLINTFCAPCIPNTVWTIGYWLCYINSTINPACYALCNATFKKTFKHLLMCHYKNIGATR

Sequence of Histamine H3 receptor (Rattus norvegicus, UniProt Q9QYN8) (Q9QYN8 whole entry): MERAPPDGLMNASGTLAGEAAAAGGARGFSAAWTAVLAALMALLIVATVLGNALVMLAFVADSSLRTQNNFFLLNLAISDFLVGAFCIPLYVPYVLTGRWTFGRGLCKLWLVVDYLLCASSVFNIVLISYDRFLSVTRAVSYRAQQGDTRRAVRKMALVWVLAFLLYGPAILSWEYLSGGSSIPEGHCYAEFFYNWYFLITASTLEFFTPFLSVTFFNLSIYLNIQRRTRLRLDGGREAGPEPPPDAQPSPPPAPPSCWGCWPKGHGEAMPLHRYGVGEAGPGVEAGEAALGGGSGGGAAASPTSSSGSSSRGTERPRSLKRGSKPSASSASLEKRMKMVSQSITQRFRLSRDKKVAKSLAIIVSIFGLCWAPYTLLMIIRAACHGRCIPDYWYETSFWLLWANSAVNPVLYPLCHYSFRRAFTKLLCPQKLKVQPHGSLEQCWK
Sequence of Cytochrome P450 2C9 (P11712 whole entry): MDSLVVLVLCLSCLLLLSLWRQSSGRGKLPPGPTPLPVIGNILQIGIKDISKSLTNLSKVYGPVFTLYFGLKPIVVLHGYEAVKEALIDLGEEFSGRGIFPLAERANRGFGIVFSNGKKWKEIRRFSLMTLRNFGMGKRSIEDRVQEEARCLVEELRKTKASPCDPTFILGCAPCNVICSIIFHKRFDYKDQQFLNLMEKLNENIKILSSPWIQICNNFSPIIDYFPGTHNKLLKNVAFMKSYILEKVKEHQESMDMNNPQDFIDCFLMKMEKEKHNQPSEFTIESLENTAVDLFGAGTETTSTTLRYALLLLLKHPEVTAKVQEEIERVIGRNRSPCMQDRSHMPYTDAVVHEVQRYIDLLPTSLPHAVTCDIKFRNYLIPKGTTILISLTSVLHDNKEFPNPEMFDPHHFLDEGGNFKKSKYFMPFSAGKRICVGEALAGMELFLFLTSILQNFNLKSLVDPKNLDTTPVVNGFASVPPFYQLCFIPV
Sequence of Cytochrome P450 2C19 (P33261 whole entry): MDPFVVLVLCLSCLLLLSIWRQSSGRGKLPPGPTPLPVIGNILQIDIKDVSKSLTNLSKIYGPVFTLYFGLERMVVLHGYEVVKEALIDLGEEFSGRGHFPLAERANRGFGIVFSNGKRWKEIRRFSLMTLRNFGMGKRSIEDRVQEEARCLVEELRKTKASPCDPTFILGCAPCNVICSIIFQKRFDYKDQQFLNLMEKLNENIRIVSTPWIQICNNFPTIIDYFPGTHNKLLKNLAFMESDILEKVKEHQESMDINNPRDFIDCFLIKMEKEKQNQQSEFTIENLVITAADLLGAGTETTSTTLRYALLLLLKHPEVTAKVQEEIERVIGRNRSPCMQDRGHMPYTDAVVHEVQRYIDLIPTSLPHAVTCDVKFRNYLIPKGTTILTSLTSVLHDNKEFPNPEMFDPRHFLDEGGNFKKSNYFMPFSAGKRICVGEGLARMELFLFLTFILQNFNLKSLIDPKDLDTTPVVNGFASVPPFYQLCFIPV
T1 sequence (Q9Y5N1 whole entry): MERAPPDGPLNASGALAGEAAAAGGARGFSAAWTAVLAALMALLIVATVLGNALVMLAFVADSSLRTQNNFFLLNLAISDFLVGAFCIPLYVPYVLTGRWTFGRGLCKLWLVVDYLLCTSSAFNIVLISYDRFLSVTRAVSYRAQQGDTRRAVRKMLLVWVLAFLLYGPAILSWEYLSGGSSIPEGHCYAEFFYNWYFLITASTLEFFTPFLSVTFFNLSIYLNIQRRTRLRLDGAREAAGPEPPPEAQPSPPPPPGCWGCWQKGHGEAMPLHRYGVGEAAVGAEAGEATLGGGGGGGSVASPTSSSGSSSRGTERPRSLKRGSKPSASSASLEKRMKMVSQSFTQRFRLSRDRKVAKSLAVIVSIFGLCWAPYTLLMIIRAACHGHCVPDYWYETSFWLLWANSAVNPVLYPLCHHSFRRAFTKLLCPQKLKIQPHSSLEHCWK
Sequence of Cytochrome P450 2D6 (P10635 whole entry): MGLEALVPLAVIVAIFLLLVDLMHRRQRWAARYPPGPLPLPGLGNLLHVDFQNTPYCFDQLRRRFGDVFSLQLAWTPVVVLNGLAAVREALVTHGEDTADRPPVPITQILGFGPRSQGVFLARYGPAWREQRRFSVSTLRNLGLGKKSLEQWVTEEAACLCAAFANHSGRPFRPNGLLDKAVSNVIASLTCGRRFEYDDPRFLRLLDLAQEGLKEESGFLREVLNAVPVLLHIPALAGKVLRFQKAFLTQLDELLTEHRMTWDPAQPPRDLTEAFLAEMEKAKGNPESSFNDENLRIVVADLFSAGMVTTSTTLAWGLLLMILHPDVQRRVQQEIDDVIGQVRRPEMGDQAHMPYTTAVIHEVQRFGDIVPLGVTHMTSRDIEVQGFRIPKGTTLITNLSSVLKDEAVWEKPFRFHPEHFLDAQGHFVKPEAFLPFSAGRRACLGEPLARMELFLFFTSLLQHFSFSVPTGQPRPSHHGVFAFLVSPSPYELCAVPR
Sequence of Cytochrome P450 3A4 (P08684 whole entry): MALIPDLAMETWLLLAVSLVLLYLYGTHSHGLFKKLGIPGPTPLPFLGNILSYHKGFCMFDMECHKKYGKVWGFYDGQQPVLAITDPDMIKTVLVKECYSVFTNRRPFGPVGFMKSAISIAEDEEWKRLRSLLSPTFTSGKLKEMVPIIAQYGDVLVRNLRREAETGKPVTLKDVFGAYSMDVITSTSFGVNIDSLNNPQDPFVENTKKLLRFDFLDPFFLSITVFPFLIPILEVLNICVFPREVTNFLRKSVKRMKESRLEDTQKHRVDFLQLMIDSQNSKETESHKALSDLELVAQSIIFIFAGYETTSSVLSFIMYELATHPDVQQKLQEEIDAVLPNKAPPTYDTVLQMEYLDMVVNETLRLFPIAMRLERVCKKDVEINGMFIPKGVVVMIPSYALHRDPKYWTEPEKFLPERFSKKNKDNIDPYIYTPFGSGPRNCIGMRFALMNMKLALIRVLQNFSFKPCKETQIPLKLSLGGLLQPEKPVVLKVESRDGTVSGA
Sequence of Histamine H2 receptor (Homo sapiens) (P25021 whole entry): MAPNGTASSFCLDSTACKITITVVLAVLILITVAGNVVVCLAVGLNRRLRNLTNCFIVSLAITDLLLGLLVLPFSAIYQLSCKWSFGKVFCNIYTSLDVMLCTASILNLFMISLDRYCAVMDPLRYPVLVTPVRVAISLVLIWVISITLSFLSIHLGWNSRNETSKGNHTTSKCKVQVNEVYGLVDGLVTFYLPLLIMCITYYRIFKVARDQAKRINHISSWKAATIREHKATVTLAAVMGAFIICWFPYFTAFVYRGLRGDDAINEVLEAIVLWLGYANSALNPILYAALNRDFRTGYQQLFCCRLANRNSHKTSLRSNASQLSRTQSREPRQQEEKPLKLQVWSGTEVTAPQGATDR
Sequence of Histamine H1 receptor (Homo sapiens) (P35367 whole entry): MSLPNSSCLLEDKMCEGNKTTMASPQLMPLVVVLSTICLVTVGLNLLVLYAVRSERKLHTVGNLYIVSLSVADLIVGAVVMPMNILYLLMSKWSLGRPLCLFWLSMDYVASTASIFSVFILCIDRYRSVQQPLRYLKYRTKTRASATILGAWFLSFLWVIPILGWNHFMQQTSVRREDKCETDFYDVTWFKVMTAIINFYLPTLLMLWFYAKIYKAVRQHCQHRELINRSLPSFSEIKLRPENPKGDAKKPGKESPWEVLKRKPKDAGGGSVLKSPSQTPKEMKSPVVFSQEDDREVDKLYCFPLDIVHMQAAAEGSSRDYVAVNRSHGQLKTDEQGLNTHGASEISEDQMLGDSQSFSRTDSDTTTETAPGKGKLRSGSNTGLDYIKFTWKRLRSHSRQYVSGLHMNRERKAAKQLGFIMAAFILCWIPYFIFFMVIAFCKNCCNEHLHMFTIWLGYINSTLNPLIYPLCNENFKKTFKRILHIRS

Ki (Histamine H3 receptor [1]): 5 nM
Ki (Histamine H3 receptor [2]): 16 nM
Compound: C[C@@H]1CCCN1CCCOc1ccc(C2=NN(C)C(=O)CC2)cc1

inhibition [3]: < 30%
half-life [4]: > 40 min
half-life [5]: > 40 min
clearance [7]: 27 mL/min/kg
EC50 (Histamine H3 receptor [8]): 0.73 nM
IC50 (Cytochrome P450 3A4): > 30000 nM
half-life [11]: > 40 min
bioavailability [12]: 38%
fraction unbound [14]: 0.72
concentration at 6 h [15]: 900 nM
Kb (Histamine H3 receptor [16]): 0.18 nM
Kp at 6 h [17]: 2.4
Vd [18]: 4.7 L/kg
half-life [19]: > 40 min
inhibition [20]: < 30%
solubility [21]: > 2000 µg/mL
half-life [23]: 114 min
fraction unbound [25]: 0.74
Cmax [26]: 189 ng/mL
inhibition [27]: < 30%
IC50 (Cytochrome P450 1A2): > 30000 nM
IC50 (Cytochrome P450 2D6): > 30000 nM
Ki (Histamine H3 receptor [1]): 4.3 nM
half-life [30]: > 40 min
solubility [32]: > 2000 µg/mL
AUC [33]: 837 ng·h/mL
Papp [34]: 14 ×10⁻⁶ cm/s
fraction unbound [35]: 0.84
Ki (Histamine H3 receptor [2]): 13 nM
IC50 (Cytochrome P450 2C19): > 30000 nM
IC50 (Cytochrome P450 2C9): > 30000 nM
Compound: C[C@@H]1CCCN1CCCOc1ccc(C2=NNC(=O)C(C)(C)C2)cc1
Activity (Rattus norvegicus [6]): 119 min
Activity (Rattus norvegicus [9]): 130 min
Activity (Rattus norvegicus [10]): Dose-dependent effect
Activity (Rattus norvegicus [13]): 127 min
Activity (Rattus norvegicus [22]): 203 min
ED50 (Rattus norvegicus [24]): 0.16 mg/kg
inhibition (Rattus norvegicus [24]): Dose-dependent effect
Activity (Rattus norvegicus [28]): 90%
Activity (Rattus norvegicus [29]): 201 min
Activity (Rattus norvegicus [31]): 150%

Ki (Histamine H3 receptor [1]): 9 nM
Ki (Histamine H3 receptor [2]): 63 nM
Compound: CC(C)N1N=C(c2ccc(OCCCN3CCC[C@H]3C)cc2)CCC1=O

Ki (Histamine H3 receptor [1]): 9.9 nM
Ki (Histamine H3 receptor [2]): 21 nM
Compound: C[C@@H]1CCCN1CCCOc1ccc(C2=NNC(=O)CC2c2ccccn2)cc1 (mixture of isomers)

EC50 (Histamine H3 receptor [8]): 1.4 nM
IC50 (Cytochrome P450 3A4): > 30000 nM
F (Rattus norvegicus [36]): 52%
BPR ([17]; brain, 6 h): 1.9
Vd (Rattus norvegicus [37]): 3.4 L/kg
t1/2 (Rattus norvegicus [38]): 90 min
Cmax (Rattus norvegicus [39]): 274 ng/mL
IC50 (Cytochrome P450 1A2): > 30000 nM
IC50 (Cytochrome P450 2D6): > 30000 nM
Ki (Histamine H3 receptor [1]): 4.7 nM
AUC (Rattus norvegicus [40]): 1327 ng·h/mL
Ki (Histamine H3 receptor [2]): 20 nM
IC50 (Cytochrome P450 2C19): > 30000 nM
IC50 (Cytochrome P450 2C9): > 30000 nM
Compound: CC1CC(=O)NN=C1c1ccc(OCCCN2CCC[C@H]2C)cc1 (single isomer, unassigned; isomer 2)

Ki (Histamine H3 receptor [1]): 12 nM
Ki (Histamine H3 receptor [2]): 42 nM
Compound: C[C@@H]1CCCN1CCCOc1ccc(C2=NN(c3ccccn3)C(=O)CC2)cc1

Ki (Histamine H3 receptor [1]): 10 nM
Ki (Histamine H3 receptor [2]): 16 nM
Compound: C[C@@H]1CCCN1CCCOc1ccc(C2=NN(c3ccccc3)C(=O)CC2)cc1

half-life [4]: > 40 min
half-life [5]: > 40 min
clearance [7]: 8.5 mL/min/kg
EC50 (Histamine H3 receptor [8]): 0.7 nM
IC50 (Cytochrome P450 3A4): > 11000 nM
half-life [11]: > 40 min
bioavailability [12]: 19%
concentration at 6 h [15]: 2200 nM
Kp at 6 h [17]: 3.1
Vd [18]: 0.8 L/kg
half-life [19]: > 40 min
solubility [21]: > 2000 µg/mL
inhibition [41]: 60%
half-life [23]: 66 min
Cmax [26]: 376 ng/mL
IC50 (Cytochrome P450 1A2): > 30000 nM
IC50 (Cytochrome P450 2D6): > 11000 nM
Ki (Histamine H3 receptor [1]): 3.2 nM
half-life [30]: > 40 min
solubility [32]: > 2000 µg/mL
AUC [33]: 1830 ng·h/mL
Papp [34]: 11.4 ×10⁻⁶ cm/s
Ki (Histamine H3 receptor [2]): 8.8 nM
IC50 (Cytochrome P450 2C19): > 30000 nM
IC50 (Cytochrome P450 2C9): > 30000 nM
Compound: C[C@@H]1CCCN1CCCOc1ccc(C2=NNC(=O)CC2)cc1
ED50 (Rattus norvegicus [24]): 0.06 mg/kg
inhibition (Rattus norvegicus [24]): Dose-dependent effect

Ki (Histamine H3 receptor [1]): 37 nM
Ki (Histamine H3 receptor [2]): 114 nM
Compound: C[C@H]1CCCN1CCCOc1ccc(C2=NNC(=O)CC2)cc1

Ki (Histamine H3 receptor [1]): 74 nM
Ki (Histamine H3 receptor [2]): 256 nM
Compound: O=C1CCC(c2ccc(OCCCN3CCCC3)cc2)=NN1

Ki (Histamine H3 receptor [1]): 21 nM
Ki (Histamine H3 receptor [2]): 28 nM
Compound: CC1CC(=O)NN=C1c1ccc(OCCCN2CCCCC2)cc1 (racemic)
